Test results: US20210387983A1, “CRYSTALLINE ALK5 INHIBITORS AND USES THEREOF” (THERAVANCE BIOPHARMA R&D IP, LLC, priority 2020, published 2021)

Assay: Dynamic moisture sorption (DMS) analysis
Format: physicochemical
Conditions: for XRPD pattern of solid after two consecutive sorption-desorption cycles: 5-90% RH, 25° C.; for total moisture gain: exposed to 5-90% relative humidity, about 25° C.; for hygroscopicity: from DMS data
Protocol: Dynamic moisture sorption (DMS) analysis was performed on weighed samples of the crystalline forms of the compound of Formula I using a VTI atmospheric microbalance, SGA-100 system (VTI Corp., Hialeah, Fla. 33016). Following an initial drying step (approximately 0% RH) of 2 hours, two cycles of sorption and desorption were completed isothermally at 25° C. at a scan rate of 5% RH/step over a humidity range of 5 to 90% RH. Representative DMS traces of polymorph Form I and polymorph Form II of a fumarate salt of the compound of Formula I and polymorph Form III of the compound of Formula I (freebase) are shown in FIG. 4, FIG. 8 and FIG. 12, respectively.

With `C[C@@H]1CN(CCNc2cnc3ccc(-c4nc[nH]c4-c4cc(Cl)ccc4F)nc3c2)C[C@H](C)N1.O=C(O)/C=C/C(=O)O` [polymorph Form I, 6-(5-(5-chloro-2-fluorophenyl)-1H-imidazol-4-yl)-N-(2-((3S,5R)-3,5-dimethylpiperazin-1-yl)ethyl)-1,5-naphthyridin-3-amine, fumaric Acid] the “XRPD pattern of solid after two consecutive sorption-desorption cycles” value (shortened to “XRPD pattern of solid”) was “no change in form”, the total moisture gain was “about 1.30 % by weight” and the hygroscopicity was “slightly-hygroscopic”.

With `C[C@@H]1CN(CCNc2cnc3ccc(-c4nc[nH]c4-c4cc(Cl)ccc4F)nc3c2)C[C@H](C)N1.O=C(O)/C=C/C(=O)O` [polymorph Form II, 6-(5-(5-chloro-2-fluorophenyl)-1H-imidazol-4-yl)-N-(2-((3S,5R)-3,5-dimethylpiperazin-1-yl)ethyl)-1,5-naphthyridin-3-amine, fumaric Acid] the “XRPD pattern of solid” value was “no change in form”, the total moisture gain was “about 0.85 % by weight” and the hygroscopicity was “slightly-hygroscopic”.

With `C[C@@H]1CN(CCNc2cnc3ccc(-c4nc[nH]c4-c4cc(Cl)ccc4F)nc3c2)C[C@H](C)N1` [polymorph Form III, 6-(5-(5-chloro-2-fluorophenyl)-1H-imidazol-4-yl)-N-(2-((3S,5R)-3,5-dimethylpiperazin-1-yl)ethyl)-1,5-naphthyridin-3-amine] the “XRPD pattern of solid” value was “no change in form”, the total moisture gain was “about 0.6 % by weight” and the hygroscopicity was “slightly-hygroscopic”.
